Experimental data as given in patent US20210371817A1, “COMPOSITIONS AND METHODS FOR PRECISE PATTERNING OF POSTERIOR NEUROECTODERM FROM HUMAN PLURIPOTENT STEM CELLS” (WISCONSIN ALUMNI RESEARCH FOUNDATION, priority 2013, published 2021).

Columns and labels:
Type in all cases: cell-based, human
NSC cultures = test: Hox protein expression in NSC cultures after RA treatment (immunocytochemistry, flow cytometry)
Protocol: (§1) Assessment of neuroectoderm or mesoderm fate transition by flow cytometry. Grey histogram, IgG control; red histogram, antigen of interest. Data are presented as mean±standard deviation calculated from two biological replicates. (FIG. 8B) For experiments in panels FIGS. 8C-8F, neuromesodermal propagation was halted by removing FGF8b/CHIR 99021/GDF11 and adding RA. Assays were conducted after 4 days of RA treatment. (FIG. 8C) HOX profiles generated after RA treatment. Each gene is normalized to its maximum expression. Error bars are standard deviation calculated from duplicate reactions. (FIG. 8D) HoxB4 and HoxD10 expression in neuroepithelial cultures after RA treatment. Scale bars, 100 m. (FIG. 8E) Purity of Sox2, Pax6, HoxB4, and HoxD10 after 4 days of RA treatment. Sox2, Pax6, and HoxB4 were quantified using flow cytometry and HoxD10 was quantified by manual counting of dissociated cells ([…]). Error bars are standard deviation calculated from at least two biological replicates. […] (FIG. 8F) Motor neuron differentiation at cervical, thoracic, and lumbar spinal cord depths, where the motor neuron precursors show region-specific patterns of FoxP1, Isl1, and Hb9 co-expression. (FIG. 8G) Neuronal maturation from cervical, thoracic, and lumbar patterned NSCs, as assessed by immunocytochemistry (top panel; DAPI (blue) is overlaid in all images; Scale bars, 20 m) and RT-PCR (50 cycles; bottom panel).
FIGS. 9A-9C (FIG. 9A) provides additional data showing that RA induces a neuroectodermal fate and halts colinear HOX activation, using the neural differentiation scheme shown in FIG. 8B and representative hindbrain cultures assessed by qPCR. (FIG. 9B) Representative hindbrain cultures assessed by immunocytochemistry. (FIG. 9C) Representative hindbrain cultures assessed by flow cytometry. All data are presented as mean±S.D. and qPCR data are normalized to the time point of maximum expression for each gene. For the hindbrain cultures, HoxB1 and HoxB4 were quantified by immunocytochemistry relative to DAPI+ nuclei, while Sox2 and Pax6 were quantified by flow cytometry. Scale bars, 100 m.
(§2) Flow cytometry. Flow cytometry was conducted as described in the Examples above. Primary antibodies against Sox2 (mouse; 1:1000; Millipore), brachyury (goat; 1:200; R&D Systems), Pax6 (mouse; 1:200; DSHB), and HoxB4 (rat; 1:50; DSHB) were utilized. Samples were run on a FACSCaliber (BD Biosciences) and data were analyzed using Cyflogic software. Positive events were quantified by gating above the top 1% of species-matched IgG controls.
Immunocytochemistry. Immunocytochemistry was conducted as previously described. […]

[1] = test system: neuromesodermal progenitors; test: Neuroectoderm or mesoderm fate transition of neuromesodermal progenitors by flow cytometry
Protocol: as §1, §2
We next evaluated the transition of neuromesodermal progenitors to definitive neural progenitors. RA secreted from somites in response to declining FGF signaling elicits dorsal/ventral patterning and expression of the neuroectoderm marker Pax6 in vivo^16, 26, which led us to suspect RA serves as both the neuroectoderm fate switch and HOX ‘stop signal’. We first investigated the ability of RA to initiate neuroectoderm specification from neuromesodermal progenitors. […] At any point in neuromesodermal differentiation, the addition of RA generated highly pure (>83%) Pax6^+ neuroectoderm (FIGS. 8B-8E and FIGS. 9A-9C).

[2] = test system: neurally differentiating hPSC cultures; test: Alternative FGF isoforms in HOX patterning protocol (flow cytometry, RT-PCR); conditions: for Sox2 and T (Brachyury) expression: FGF with CHIR, flow cytometry; for Hox1-5 paralog activation: two days of FGF/CHIR treatment, RT-PCR
Protocol: (FIG. 6A) Timeline of differentiation. […] (FIG. 6H) Agarose gel analysis for HOXgene expression after two days of FGF/CHR treatment in the protocol outlined in (FIG. 6A).
Specifically, FGF8a, 8b, and 8f, FGF17, FGF18, and FGF2 were used to execute our HOX patterning protocol on concurrent neurally differentiating hPSC cultures. The ability of alternative FGFs to recapitulate the effects of FGF8b was assessed by their ability to maintain a Sox2^+/T^+ neuromesodermal state while also inducing a similar rate of sequential HOXgene expression. Post FGF/CHIR addition, flow cytometry assays for Sox2 and T were performed, and the rate of sequential HOXgene expression was assessed by RT-PCR for a select panel of HOXgenes on collected mRNA samples.

H9 ishcat2 line = test: qPCR gene expression in H9 ishcat2 line (doxycycline-inducible β-catenin shRNA)
Protocol: Cell lines were passaged for differentiation on day −1 for all experiments (see Example 4 for details). (FIG. 4A) Timeline of H9 hESC differentiation corresponding to panels (FIG. 4B) and (FIG. 4C). RA, 1 μM; CHIR 99021, 3 μM; FGF8b, 100 ng/ml. (FIG. 4B) Gene expression analysis by RT-PCR. Control sample is E6 medium alone. (FIG. 4C) qPCR analysis at day 5 of differentiation normalized to the morphogen treatment that yielded maximum expression. Statistical significance was calculated using the Student's unpaired t-test relative to the sample with maximum expression (*, p<0.005; **, p<0.001). (FIG. 4D) qPCR analysis of gene expression at day 2 using the H9 ishcat2 line in the presence or absence of doxycycline (2 μg/ml) added 3 days prior to morphogen treatment. Data are normalized to doxycycline-free samples for each respective morphogen and statistical significance was calculated using the Student's unpaired t-test (*, p<0.01). (FIG. 4E) qPCR analysis of gene expression at day 5 using the H9 ishcat2 line in the presence or absence of doxycycline. Statistical significance was calculated using the Student's unpaired t-test (*, p<0.005). […] [HX531]=1 μM. Timeline shown on left panel.
(§3) qPCR. Total RNA was extracted from cultured cells using TRIZOL® (Life Technologies) according to the manufacturer's instructions. After isolation, 2-5 μg of total RNA was immediately subjected to reverse transcription using the Thermoscript™ RT-PCR kit (Life Technologies) in a 20 μL reaction according to the manufacturer's instructions. Resultant cDNA was diluted to 200 μL and utilized for qPCR (25 μL reactions, 1 μL cDNA per reaction) on a BioRad CFX96 detection unit using TAQMAN® Gene Expression Master Mix (Life Technologies) and TAQMAN® primers (Life Technologies). For all experiments, ΔΔCt values for each gene were calculated relative to ribosomal protein S18 (RPS18) RNA levels and converted to fold difference assuming 100% primer efficiency, then normalized to maximum expression levels as indicated in each figure legend.
To confirm the effects of CHIR 99021 were due to activation of β-catenin, we utilized the H9 ishcat2 line which harbors a doxycycline-inducible β-catenin shRNA cassette^23. […] We extended doxycycline with FGF8b/CHIR 99021 for 4 days and observed a reduction in HOXC6 by 9-fold, HOXC8 by 7-fold, and HOXC9 by 8-fold, which implicates β-catenin in HOX progression to caudal paralogs (FIG. 4E).

H9 hESCs = test: HOX, OTX2 and T gene expression by RT-PCR/qPCR during hESC differentiation with morphogens; conditions: HX531 1 μM; RT-PCR
Protocol: hPSC differentiation. hPSCs were washed once with phosphate-buffered saline (PBS; Invitrogen), dissociated with ACCUTASE® (Invitrogen) for 3 min, and collected by centrifugation. hPSCs were then seeded onto VTN-NC-coated plates in E8 medium containing 10 μM ROCK inhibitor (Y27632; R&D Systems). Seeding density was 2×10^5 cells/cm^2. The following day, the cells were switched to E6 medium (same composition as E8 medium minus FGF2 and TGFβ 1). Morphogen treatments were then carried out according to the figures in the text. Cells were supplemented with FGF8b (100-200 ng/ml; Peprotech), CHIR99021 (3-6 μM; Tocris), and/or RA (3 μM; Sigma).
Reverse transcriptase polymerase chain reaction (RT-PCR). Total RNA was extracted from cells using TRIZOL® reagent (Invitrogen) according to the manufacturer's instructions. RNA was then subjected to reverse-transcription using a Thermoscript™ RT-PCR kit (Invitrogen) in a 20 μL mixture according to the manufacturer's instructions. The resulting cDNA was then amplified in a 25 μL mixture containing 10×PCR buffer, 0.2 mM dNTP, 1.5 mM MgCl2, 0.5 μM of each primer, and 1 U Taq DNA polymerase (Invitrogen). Amplified products were resolved on 2% agarose gels containing SYBR Safe (Invitrogen) and visualized with a VersaDoc (BioRad). Primer sequences can be found in Table 3. All amplifications were carried out for 35 cycles. HOXC5 and HOXC6 were amplified at 58° C., all others with an annealing temperature of 55° C.
Propagation and differentiation of neuromesodermal progenitors. H9 hESCs (passage 25-45), H9 ishcat2 hESCs (passage 33-43), and IMR90-4 iPSCs (passage 31-40) were maintained in E8 medium on MATRIGEL© (BD Biosciences) as previously described. To initiate differentiation, hPSCs were passaged with ACCUTASE© (Life Technologies) onto vitronectin (VTN-NC)-coated plates at a density of 1×10^5 cells/cm^2 as previously described. The following day, cells were changed to E6 medium. 24 h later, cells were changed to E6 medium containing 200 ng/ml FGF8b (Peprotech). 24 h later, cells were washed once with 2 ml PBS, treated with ACCUTASE® for 2 min, and removed from the surface by gentle pipetting. After collection by centrifugation, cells were gently resuspended in E6 medium containing 200 ng/ml FGF8b and CHIR99021 (CHIR, concentration varied depending on cell line; Tocris) and re-seeded on VTN-NC-coated plates at a density of 1.5×10^5 cells/cm^2. Medium was not changed until 48 h after passaging. This passaging process was repeated on day 3 of CHIR 99021 treatment (re-seed density of 1.2×10^5 cells/cm^2) if extended neuromesodermal propagation was required, and 50 ng/ml GDF11 (Peprotech) was added on day 4 of CHIR 99021 treatment to initiate lumbar patterning. Cells were changed to E6 medium containing 1 μM retinoic acid (RA; Sigma) to facilitate neural transition.
as §3, with “Resultant cDNA was diluted to 200 μL and utilized for qPCR (25 μL reactions, 1 μL cDNA per reaction) on a BioRad CFX96 detection unit using TAQMAN® Gene Expression Master Mix (Life Technologies) and TAQMAN® primers (Life Technologies).” left out, “legend. […]” for “legend.”

[3] = neuromesodermal progenitors exposed to E6 medium with the substance
[4] = doxycycline prior to CHIR 99021 treatment, day 2
[5] = doxycycline with FGF8b/CHIR 99021 for 4 days

`CC1=C(/C=C/C(C)=C/C=C/C(C)=C/C(=O)O)C(C)(C)CCC1` [RA, retinoic acid] was tested, and the “HoxB4+ cells” value (NSC cultures; RA added 24 h later (within 24 h of HOXC9 induction)) was 12±4%, the “HoxB4+ cells” value (NSC cultures; RA added between 24-48 h of neuromesodermal propagation) was 84±10% and the “Purity of Pax6+ neuroectoderm” value ([1]; RA added at any point in neuromesodermal differentiation) was > 83%. For the same molecule, the “Brachyury+ cells” value [1, 3] was 43±4%, the “Pax6+ cells” value [1, 3] was 97±3% and the “Sox2+ cells” value [1, 3] was 98±4%.

“FGF2: fibroblast growth factor isoform used instead of FGF8b” was tested, and the “Sox2 and T (Brachyury) expression” value [2] was “nearly uniform expression of Sox2 and T (Brachyury)” and the Hox1-5 paralog activation [2] was “activated Hox1-5 paralogs”.

With `C[C@H]1c2cccc(O)c2C(=O)C2=C(O)[C@]3(O)C(=O)C(C(N)=O)=C(O)[C@@H](N(C)C)[C@@H]3[C@@H](O)[C@@H]21` [doxycycline] the CTNNB1 reduction (H9 ishcat2 line; RA-treated cells, day 2) was 2 fold, the “CTNNB1 (β-catenin) expression reduction” value (H9 ishcat2 line; doxycycline 2 μg/ml prior to CHIR 99021 treatment, day 2) was 2.5 fold and the HOXA1 expression decrease (H9 ishcat2 line; [4]) was 15 fold. For the same molecule, the HOXB1 expression decrease (H9 ishcat2 line; [4]) was 47 fold, the T reduction (H9 ishcat2 line; doxycycline with FGF8b/CHIR 99021, day 5) was 30 fold and the HOXC6 reduction (H9 ishcat2 line; [5]) was 9 fold. For the same molecule, the HOXC8 reduction (H9 ishcat2 line; [5]) was 7 fold and the HOXC9 reduction (H9 ishcat2 line; [5]) was 8 fold.

For `CN1c2ccc([N+](=O)[O-])cc2N=C(c2ccc(C(=O)O)cc2)c2cc3c(cc21)C(C)(C)CCC3(C)C` [HX531], the “Effect on ability of FGF8b/CHIR 99021 to activate cervical and thoracic HOX paralogs” value (H9 hESCs) was “did not prevent”.

B1: FGF18: fibroblast growth factor isoform used instead of FGF8b (protein, UniProt O76093 28-207, looked up)
Fibroblast growth factor 18: EENVDFRIHVENQTRARDDVSRKQLRLYQLYSRTSGKHIQVLGRRISARGEDGDKYAQLLVETDTFGSQVRIKGKETEFYLCMNRKGKLVGKPDGTSKECVFIEKVLENNYTALMSAKYSGWYVGFTKKGRPRKGPKTRENQQDVHFMKRYPKGQPELQKPFKYTTVTKRSRRIRPTHPA
For B1, the “Sox2 and T (Brachyury) expression” value [2] was “nearly uniform expression of Sox2 and T (Brachyury)” and the Hox1-5 paralog activation [2] was “activated Hox1-5 paralogs”.

B2: FGF17: fibroblast growth factor isoform used instead of FGF8b (protein, UniProt O60258 23-216, looked up)
Fibroblast growth factor 17: TQGENHPSPNFNQYVRDQGAMTDQLSRRQIREYQLYSRTSGKHVQVTGRRISATAEDGNKFAKLIVETDTFGSRVRIKGAESEKYICMNKRGKLIGKPSGKSKDCVFTEIVLENNYTAFQNARHEGWFMAFTRQGRPRQASRSRQNQREAHFIKRLYQGQLPFPNHAEKQKQFEFVGSAPTRRTKRTRRPQPLT
B2 was tested, and the “Sox2 and T (Brachyury) expression” value [2] was “nearly uniform expression of Sox2 and T (Brachyury)” and the Hox1-5 paralog activation [2] was “activated Hox1-5 paralogs”.
